As usually defined, the EC50 is the midpoint of the concentration-response curve. Broadly, the IC50 is the concentration that gives 50% inhibition. Read a low IC50 as greater potency in that assay.

EC50, IC50 and outcome data for 52 molecules are collected here from PubChem BioAssay AID179 (DTP/NCI, 2004).

Calls of active or inactive are those of the source.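 Rule for the calls: active = compounds giving half or more protection of infected cells from virus-caused growth loss, again on retest; inactive = the rest.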 Some results are limits rather than exact numbers.

The subject of the assay is CEM cells HIV-1 protection, formazan growth assay. The assay is described as follows: NCI AIDS Antiviral Assay. Particulars: for IC50: measured here: growth of uninfected CEM cells. The essentials:
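Soluble formazan readout of cell growth; CEM cells ± HIV-1; 5 drug concs. ≥50% protection → retest; ≥50% again = moderately active; reproducible 100% = confirmed active.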

As to `CCCCCC=C(c1cc(Cl)c(OC)c(C(=O)OCCC)c1)c1cc(Cl)c(OC)c(C(=O)OCCC)c1`, the EC50 is more than 12.3 µM and the IC50 is more than 12.3 µM.
Take `O=C(/C=C/c1ccc(O)c(O)c1)OCCc1cccc2ccccc12`: the EC50 is more than 200 µM and the IC50 worked out at 2.75 µM.
With `Cn1c(=O)n2n(c1=O)C1C3C4C5C3C13COCC53C42` (configuration not stated), the result was inactive.
In the case of `O=C(NC1CCCCC1)c1n[nH]nc1Cl`, the EC50 was more than 200 µM and the IC50 is more than 200 µM.
As to `COc1ccc2c(c1)CN([C@@H](C)[C@H]1CC[C@H]3[C@@H]4CC[C@H]5C[C@@H](O)CC[C@]5(C)[C@H]4CC[C@]13C)CO2`, the EC50 is more than 61.7 µM and the IC50 was determined as 3.16 µM.
For `C=CCSS/C=C/CS(=O)CC=C` (configuration not stated) the same measures were more than 81.3 µM and 0.692 µM.
On the same counts, the results for `CN1CCCn2c(nc3ccccc3c2=O)C1` are more than 1100 µM and more than 1100 µM.
As for `CCOC(=N)n1c(=O)n(C2=NCCN2)c2ccccc21`, the EC50 is more than 200 µM and the IC50 worked out at 123 µM.
For `CCN(CC)C(=O)Cc1c(C(=O)N(CC)CC)c(=O)nc2sccn12`, the EC50 was more than 692 µM and the IC50 is more than 692 µM.
Regarding `CCOC(=O)Nc1ccc2c(c1)/C(=N\NC(N)=S)c1ccccc1-2`, the EC50 was more than 200 µM and the IC50 came out at 3.39 µM.
With `O=C(O)[C@@H]1C[C@@H](O)CN1C(=O)OCc1ccccc1`, the result was inactive.
`C=CCNC(=S)/N=C/C(C(=O)Nc1ccccc1OC)=C(\C)O`: the result was inactive.
In the case of `CC(C)(C)N1OC2(CCCCC2)n2c(=O)c3ccccc3c(=O)n2C1c1ccccc1` (configuration not stated), the EC50 was more than 589 µM and the IC50 is more than 589 µM.
On to `COC(=O)C(=O)C(C(=O)C(=O)Nc1ccc(C)c(C)c1)c1nc2ccc([N+](=O)[O-])cc2[nH]c1=O` (configuration not stated), for which the EC50 was more than 537 µM and the IC50 came out at 234 µM.
For the molecule `CCOC(=O)C(NC(=O)c1ccccc1)(Nc1ccc(S(=O)(=O)Nc2cc(C)on2)cc1)C(F)(F)F` (configuration not stated), the EC50 was more than 200 µM and the IC50 was more than 200 µM.
Consider `C=C(CO)[C@H]1Oc2ccc(C(C)=O)cc2[C@@H]1O`, for which the EC50 is more than 200 µM and the half-maximal inhibitory concentration (IC50) is more than 200 µM.
Turning to `Cc1cc(Cl)ccc1N=C1NC(=O)C(CC(=O)Nc2cccc(C)c2C)S1` (configuration not stated), the EC50 was more than 234 µM and the IC50 worked out at 66.1 µM.
For `COc1ccc2nc3cc(Cl)ccc3c(Sc3ccc([N+](=O)[O-])cc3)c2c1` the same measures were more than 4.79 µM and more than 4.79 µM.
As to `COC1OC(C)C(NC(=O)OCC(Cl)(Cl)Cl)C2OC(C)(C)OC12` (configuration not stated), the EC50 was more than 331 µM and the IC50 is more than 331 µM.
Regarding `CCn1c(SCC(=O)NNC(=S)Nc2ccc([N+](=O)[O-])cc2)nc2ccccc2c1=O`, the EC50 was more than 200 µM and the IC50 was 83.2 µM.
`Nc1nc(N)c2ncn(C3C=CC(CO)CC3)c2n1` (configuration not stated): the EC50 was more than 200 µM and the IC50 was more than 200 µM.
For the molecule `CCOC(=O)N1CCC2(CC1)C[C@](Sc1ccccc1)(C(C)=O)[C@H](C)O2`, the EC50 is more than 200 µM and the IC50 was more than 200 µM.
Take `O=CN/C=C\c1cc(O)ccc1O`: the EC50 was more than 427 µM and the IC50 was determined as 5.25 µM.
On the same counts, the results for `C=CCNC(=O)CN1NN=C(c2ccccc2)N1` are more than 107 µM and 93.3 µM.
Consider `CCOC(=O)NP(=O)(NNc1ccccc1)NNc1ccccc1`, for which the result was inactive.
Regarding `COc1ccccc1-n1c(N)c2c(C)c(-c3ccccc3)[nH]c2nc1=S`, the EC50 is more than 200 µM and the half-maximal inhibitory concentration (IC50) came out at 38 µM.
As for `COP(C)(=O)C1=CCN(C(=O)OCC[Si](C)(C)C)CC1` (configuration not stated), the EC50 is more than 200 µM and the IC50 was more than 200 µM.
`CCCCCCCCCCCCCCCC(O)S(=O)(=O)O` (configuration not stated): the EC50 is more than 100 µM and the IC50 stood at 15.1 µM.
With `Nc1[nH]c(=O)nc2snnc12`, the EC50 is more than 200 µM and the IC50 amounted to 4.79 µM.
Take `O=C(NC/C=C/Br)NC1CCNc2ccccc21` (configuration not stated): the EC50 is more than 200 µM and the IC50 turned out to be 14.1 µM.
On the same counts, the results for `Cc1cc2nc3nc(N)nc(NS(=O)(=O)c4cc(C)c(Cl)cc4S)n3c2cc1C` are 102 µM and 380 µM.
For `COc1ccccc1NCC(=O)Nn1c(C)nc2ccc(S(=O)(=O)Nc3ccccc3OC)cc2c1=O` the same measures were more than 200 µM and 148 µM.
On the same counts, the results for `NC(=O)CCC(NS(=O)(=O)c1ccc(NC(=O)c2ccccc2)cc1)C(=O)O` (configuration not stated) are more than 617 µM and more than 617 µM.
In the case of `O/N=C1/CC2(N3CCOCC3)C3CC/C(=N\O)C2CC1(Cc1ccccc1)C3` (configuration not stated), the EC50 is more than 200 µM and the IC50 is 123 µM.
`O=S(=O)(N1CCCCN(S(=O)(=O)C(F)(F)F)CCCN(S(=O)(=O)C(F)(F)F)CCCN(S(=O)(=O)C(F)(F)F)CCCCN(S(=O)(=O)C(F)(F)F)CCCN(S(=O)(=O)C(F)(F)F)CCC1)C(F)(F)F`: the EC50 was more than 200 µM and the 50% inhibitory concentration (IC50) was more than 200 µM.
In the case of `COC(=O)c1cc(=O)nc(N/N=C/c2ccc(C)cc2)s1`, the EC50 is more than 44.7 µM and the IC50 was determined as 30.9 µM.
As to `COc1cccc2c1cc([N+](=O)[O-])c1c(C(=O)O)cc3c(c12)OCO3`, the EC50 was more than 200 µM and the IC50 was found to be 19.1 µM.
On the same counts, the results for `CSc1nc(NC2OC(COC(C)=O)C(OC(C)=O)C(OC(C)=O)C2OC(C)=O)c2c(n1)OCC2=O` (configuration not stated) are more than 67.6 µM and more than 67.6 µM.
On the same counts, the results for `N#CC(=C1CCN(Cc2ccccc2)CC1)c1ccccc1` are more than 200 µM and 81.3 µM.
In the case of `N#Cc1ccc(C=NC23CC4CC(CC(C4)C2)C3)cc1`, the EC50 was more than 67.6 µM and the IC50 was more than 67.6 µM.
Regarding `COc1cc(Nc2cnc3cc(F)c(F)cc3n2)cc(OC)c1`, the EC50 is more than 200 µM and the IC50 is more than 200 µM.
For the molecule `OCC(O)C(OC1OC(CO)C(O)C(O)C1O)c1nn(-c2ccccc2)c2nc3cc(Cl)c(Cl)cc3cc12` (configuration not stated), the result was inactive.
On to `CCOC(=O)/C(Br)=C1\OC(=O)c2ccccc2-c2ccccc21`, for which the EC50 is more than 19.5 µM and the IC50 was more than 19.5 µM.
In the case of `CC(=O)N/N=C1\NN(C(C)=O)C2(S1)C(=O)Nc1ccccc12` (configuration not stated), the EC50 was more than 200 µM and the IC50 is more than 200 µM.
Regarding `O=c1[nH]/c(=C/c2ccc3c(c2)OCO3)c(=O)[nH]/c1=C/c1ccc2c(c1)OCO2`, the result was inactive.
`CC(CN(C)C)OC(=O)c1cc2ccccc2[nH]1` (configuration not stated): the EC50 is more than 200 µM and the IC50 was more than 200 µM.
Regarding `CCOc1ccccc1-c1nc2c(s1)C(=O)c1ccccc1C2=O`, the EC50 was more than 200 µM and the IC50 was 32.4 µM.
For `CN1CCN(c2ccc(-n3cc(C(=O)O)c(=O)c4cc(F)c(N5CCN(C)CC5)cc43)nc2)CC1` the same measures were more than 200 µM and 115 µM.
`CN(C)/N=C/c1cn(C)c(=O)n(C)c1=O`: the EC50 is more than 200 µM and the IC50 was more than 200 µM.
Regarding `S=C(NN1CCOCC1)SSC(=S)NN1CCOCC1`, the EC50 is more than 20 µM and the IC50 was found to be 0.933 µM.
Turning to `CCOC(=O)/C(C[C@H]1OC(C)(C)O[C@@H]1[C@H]1COC(C)(C)O1)=N/O`, the EC50 is more than 200 µM and the IC50 is more than 200 µM.
Regarding `O=[N+]([O-])c1cc(C(F)(F)F)cc2n[se]nc12`, the result was inactive.
